What was measured:
Type in all cases: cell-based
[1] = system: RSV-Fluc (Recombinant Respiratory Syncytial virus strain A2 containing the firefly luciferase reporter); test: microbe, parasite or virus in culture; settings: human respiratory syncytial virus, NHBE, 72 h, read-out: RSV-Fluc EC50 (nM, NHBE)
SARS-CoV-2 = test: microbe, parasite or virus in culture; settings: Severe acute respiratory syndrome coronavirus 2, 48 h
[2] = MT4 cytotoxicity analysis (CellTiter-Glo); settings: human, MT4 CC50 (nM)
Procedure: Example 79: MT4 Cytotoxicity Analysis
3-fold serially diluted compound in DMSO, ranging from 2.5 uM to 10 mM, were added by acoustic transfer (Echo) in quadruplicate into black 384-well plates at 200 nl/well. After compound addition, 40 ul MT-4 cells at 80,000/ml were added to each well using a MicroFlo liquid dispenser (BioTek, Winooski, VT) and the cells were cultured for five days at 37° C. Following the incubation, cell viability was determined by adding 35 μL of CellTiter-Glo viability reagent and mixed thoroughly using ViaFlo 384 well workstation. The mixture was incubated for at least 10 minutes at 25° C., and the luminescence signal was quantified on an EnVision plate reader.

CCCCCCCCCCCCCCCCCCOC[C@H](COP(=O)(O)OC[C@H]1O[C@@](C#N)(c2ccc3c(N)ncnn23)[C@H](O)[C@@H]1O)N1Cc2ccccc2C1 [Example 1, ((2R,3S,4R,5R)-5-(4-aminopyrrolo[2,1-f][1,2,4]triazin-7-yl)-5-cyano-3,4-dihydroxytetrahydrofuran-2-yl)methyl ((R)-2-(isoindolin-2-yl)-3-(octadecyloxy)propyl) hydrogen phosphate]
EC50 [1]: 570 nM | EC50 (SARS-CoV-2): 3.2 µM | CC50 at 5 days [2]: 20000 nM

CCCCCCCCCCCCCCCCCCOC[C@H](COP(=O)(O)OC[C@H]1O[C@@](C#N)(c2ccc3c(N)ncnn23)[C@H](O)[C@@H]1O)N(C)Cc1ccccc1 [Example 2, ((2R,3S,4R,5R)-5-(4-aminopyrrolo[2,1-f][1,2,4]triazin-7-yl)-5-cyano-3,4-dihydroxytetrahydrofuran-2-yl)methyl ((R)-2-(benzyl(methyl)amino)-3-(octadecyloxy)propyl) hydrogen phosphate]
EC50 [1]: 5000 nM | EC50 (SARS-CoV-2): 10 µM | CC50 at 5 days [2]: 25000 nM

CCCCCCCCCCCCCCCCCCOC[C@H](COP(=O)(O)OC[C@H]1O[C@@](C#N)(c2ccc3c(N)ncnn23)[C@H](O)[C@@H]1O)N(Cc1ccc(F)c(Cl)c1)C(C)=O [Example 10, ((2R,3S,4R,5R)-5-(4-aminopyrrolo[2,1-f][1,2,4]triazin-7-yl)-5-cyano-3,4-dihydroxytetrahydrofuran-2-yl)methyl ((R)-2-(N-(3-chloro-4-fluorobenzyl)acetamido)-3-(octadecyloxy)propyl) hydrogen phosphate]
EC50 [1]: 55 nM | EC50 (SARS-CoV-2): 3.6 µM

CCCCCCCCCCCCCCCCCCOC[C@H](COP(=O)(O)OC[C@H]1O[C@@](C#N)(c2ccc3c(N)ncnn23)[C@H](O)[C@@H]1O)N1Cc2ccccc2C1=O [Example 11, ((2R,3S,4R,5R)-5-(4-aminopyrrolo[2,1-f][1,2,4]triazin-7-yl)-5-cyano-3,4-dihydroxytetrahydrofuran-2-yl)methyl ((R)-3-(octadecyloxy)-2-(1-oxoisoindolin-2-yl)propyl) hydrogen phosphate]
EC50 [1]: 47 nM | EC50 (SARS-CoV-2): 3.8 µM

CCCCCCCCCCCCCCCCSCCCOP(=O)(O)OC[C@H]1O[C@@](C#N)(c2ccc3c(N)ncnn23)[C@H](O)[C@@H]1O [Example 19, ((2R,3S,4R,5R)-5-(4-Aminopyrrolo[2,1-f][1,2,4]triazin-7-yl)-5-cyano-3,4-dihydroxytetrahydrofuran-2-yl)methyl (3-(hexadecylthio)propyl) hydrogen phosphate]
EC50 [1]: 210 nM | EC50 (SARS-CoV-2): 3.4 µM

CCCCCCCCCCCCCCCCOCCOP(=O)(O)OC[C@H]1O[C@@](C#N)(c2ccc3c(N)ncnn23)[C@H](O)[C@@H]1O [Example 20, ((2R,3S,4R,5R)-5-(4-Aminopyrrolo[2,1-f][1,2,4]triazin-7-yl)-5-cyano-3,4-dihydroxytetrahydrofuran-2-yl)methyl (2-(hexadecyloxy)ethyl) hydrogen phosphate]
EC50 [1]: 200 nM | EC50 (SARS-CoV-2): 3.8 µM

CCCCCCCCCCCCCCCCCCOC[C@H](COCc1cc(F)cc(S(C)(=O)=O)c1)OP(=O)(O)OC[C@H]1O[C@@](C#N)(c2ccc3c(N)ncnn23)[C@H](O)[C@@H]1O [Example 33, ((2R,3S,4R,5R)-5-(4-aminopyrrolo[2,1-f][1,2,4]triazin-7-yl)-5-cyano-3,4-dihydroxytetrahydrofuran-2-yl)methyl ((R)-1-((3-fluoro-5-(methylsulfonyl)benzyl)oxy)-3-(octadecyloxy)propan-2-yl) hydrogen phosphate]
EC50 [1]: 120 nM

CCCCCCCCCCCCCCCCCCOC[C@H](Cc1ccccc1)OP(=O)(O)OC[C@H]1O[C@@](C#N)(c2ccc3c(N)ncnn23)[C@H](O)[C@@H]1O [Example 40, ((2R,3S,4R,5R)-5-(4-aminopyrrolo[2,1-f][1,2,4]triazin-7-yl)-5-cyano-3,4-dihydroxytetrahydrofuran-2-yl)methyl ((S)-1-(octadecyloxy)-3-phenylpropan-2-yl) hydrogen phosphate]
EC50 [1]: 380 nM

CCCCCCCCCCCCCCCCCCOC[C@H](COP(=O)(O)OC[C@H]1O[C@@](C#N)(c2ccc3c(N)ncnn23)[C@H](O)[C@@H]1O)OCc1cc(F)cc(C(=O)O)c1 [Example 44, 3-((((2R)-1-(((((2R,3S,4R,5R)-5-(4-aminopyrrolo[2,1-f][1,2,4]triazin-7-yl)-5-cyano-3,4-dihydroxytetrahydrofuran-2-yl)methoxy)(hydroxy)phosphoryl)oxy)-3-(octadecyloxy)propan-2-yl)oxy)methyl)-5-fluorobenzoic acid]
EC50 [1]: 120 nM | CC50 at 5 days [2]: 25000 nM

CCCCCCCCCCCCCCCCCCOC[C@H](COP(=O)(O)OC[C@H]1O[C@@](C#N)(c2ccc3c(N)ncnn23)[C@H](O)[C@@H]1O)Oc1ccc(C#N)c(OC)c1F [Example 48, ((2R,3S,4R,5R)-5-(4-aminopyrrolo[2,1-f][1,2,4]triazin-7-yl)-5-cyano-3,4-dihydroxytetrahydrofuran-2-yl)methyl ((R)-2-(4-cyano-2-fluoro-3-methoxyphenoxy)-3-(octadecyloxy)propyl) hydrogen phosphate]
EC50 [1]: 17 nM | CC50 at 5 days [2]: 160 nM

CCCCCCCCCCCCCCCCCCOC[C@H](COP(=O)(O)OC[C@H]1O[C@@](C#N)(c2ccc3c(N)ncnn23)[C@H](O)[C@@H]1O)Oc1cc(C)c(C#N)cc1F [Example 49, ((2R,3S,4R,5R)-5-(4-aminopyrrolo[2,1-f][1,2,4]triazin-7-yl)-5-cyano-3,4-dihydroxytetrahydrofuran-2-yl)methyl ((R)-2-(4-cyano-2-fluoro-5-methylphenoxy)-3-(octadecyloxy)propyl) hydrogen phosphate]
EC50 [1]: 23 nM | CC50 at 5 days [2]: 1100 nM

CCCCCCCCCCCCCCCCCCOC[C@H](COP(=O)(O)OC[C@H]1O[C@@](C#N)(c2ccc3c(N)ncnn23)[C@H](O)[C@@H]1O)OCc1cc(F)c(Cl)c(C#N)c1 [Example 50, ((2R,3S,4R,5R)-5-(4-aminopyrrolo[2,1-f][1,2,4]triazin-7-yl)-5-cyano-3,4-dihydroxytetrahydrofuran-2-yl)methyl ((R)-2-((4-chloro-3-cyano-5-fluorobenzyl)oxy)-3-(octadecyloxy)propyl) hydrogen phosphate]
EC50 [1]: 24 nM | CC50 at 5 days [2]: 640 nM

CCCCCCCCCCCCCCCCCCOC[C@H](COP(=O)(O)OC[C@H]1O[C@@](C#N)(c2ccc3c(N)ncnn23)[C@H](O)[C@@H]1O)OCc1cc(F)c(CCC)c(C#N)c1 [Example 51, ((2R,3S,4R,5R)-5-(4-aminopyrrolo[2,1-f][1,2,4]triazin-7-yl)-5-cyano-3,4-dihydroxytetrahydrofuran-2-yl)methyl ((R)-2-((3-cyano-5-fluoro-4-propylbenzyl)oxy)-3-(octadecyloxy)propyl) hydrogen phosphate]
EC50 [1]: 100 nM | CC50 at 5 days [2]: 6700 nM

CCCCCCCCCCCCCCCCCCOC[C@H](COP(=O)(O)OC[C@H]1O[C@@](C#N)(c2ccc3c(N)ncnn23)[C@H](O)[C@@H]1O)Oc1cc(OC)c(C#N)cc1F [Example 52, ((2R,3S,4R,5R)-5-(4-aminopyrrolo[2,1-f][1,2,4]triazin-7-yl)-5-cyano-3,4-dihydroxytetrahydrofuran-2-yl)methyl ((R)-2-(4-cyano-2-fluoro-5-methoxyphenoxy)-3-(octadecyloxy)propyl) hydrogen phosphate]
EC50 [1]: 17 nM | CC50 at 5 days [2]: 370 nM

CCCCCCCCCCCCCCCCCCOC[C@H](COP(=O)(O)OC[C@H]1O[C@@](C#N)(c2ccc3c(N)ncnn23)[C@H](O)[C@@H]1O)OCc1cc(F)c(C)c(C#N)c1 [Example 53, ((2R,3S,4R,5R)-5-(4-aminopyrrolo[2,1-f][1,2,4]triazin-7-yl)-5-cyano-3,4-dihydroxytetrahydrofuran-2-yl)methyl ((R)-2-((3-cyano-5-fluoro-4-methylbenzyl)oxy)-3-(octadecyloxy)propyl) hydrogen phosphate]
EC50 [1]: 25 nM | CC50 at 5 days [2]: 430 nM

CCCCCCCCCCCCCCCCCCOC[C@H](COP(=O)(O)OC[C@H]1O[C@@](C#N)(c2ccc3c(N)ncnn23)[C@H](O)[C@@H]1O)OCc1cc(C#N)c(Cl)c(OC)c1 [Example 54, ((2R,3S,4R,5R)-5-(4-aminopyrrolo[2,1-f][1,2,4]triazin-7-yl)-5-cyano-3,4-dihydroxytetrahydrofuran-2-yl)methyl ((R)-2-((4-chloro-3-cyano-5-methoxybenzyl)oxy)-3-(octadecyloxy)propyl) hydrogen phosphate]
EC50 [1]: 64 nM | CC50 at 5 days [2]: 1300 nM

CCCCCCCCCCCCCCCCCCN(C)C(=O)[C@H](COP(=O)(O)OC[C@H]1O[C@@](C#N)(c2ccc3c(N)ncnn23)[C@H](O)[C@@H]1O)OCc1cc(F)cc(C#N)c1 [Example 56, ((2R,3S,4R,5R)-5-(4-aminopyrrolo[2,1-f][1,2,4]triazin-7-yl)-5-cyano-3,4-dihydroxytetrahydrofuran-2-yl)methyl ((S)-2-((3-cyano-5-fluorobenzyl)oxy)-3-(methyl(octadecyl)amino)-3-oxopropyl) hydrogen phosphate]
EC50 [1]: 13 nM | CC50 at 5 days [2]: 200 nM

CCCCCCCCCCCCCCCCOCCOP(=O)(O)OC[C@H]1O[C@@](C#N)(c2ccc3c(N)ncnn23)[C@H](O)[C@@H]1O [Example 66, [(2R,3S,4R,5R)-5-(4-Aminopyrrolo[2,1-f][1,2,4]triazin-7-yl)-5-cyano-3,4-dihydroxy-tetrahydrofuran-2-yl]methyl 2-hexadecoxyethyl hydrogen phosphate]
CC50 at 5 days [2]: 29000 nM

— patent US12208110B2 (priority 2020, dated 2025)
